Values of other authors, collected in patent US8071133B2, “Oral dosage forms of water insoluble drugs and methods of making the same” (Stiefel Laboratories, Inc., priority 2001, dated 2011).

solubility in water: approximately 10 microgram per mL
SMILES: CC(C)(C)NC(=O)[C@@H]1C[C@@H]2CCCC[C@@H]2CN1C[C@@H](O)[C@H](Cc1ccccc1)NC(=O)[C@H](CC(N)=O)NC(=O)c1ccc2ccccc2n1 [Saquinavir]
